Measured values from article PMC6389950, “Small Peptide Ligands for Targeting EGFR in Triple Negative Breast Cancer Cells” (Scientific Reports, 2019).
Values joined by “and” are separate entries in the source; they are usually repeats but may differ in a detail not shown here. Equal values may be shown once. Where a SMILES comes first, the peptide text is derived from it. The star is where a group is joined. FITC = O=C1OC2(c3ccc(O)cc3Oc3cc(O)ccc32)c2ccc(NC(=S)*)cc21; βAla = NCCC(=O)O

Experiments:
MCF-10A = assay: Peptide array-whole cell binding assay; type: cell-based; settings: non-tumorigenic cells; peptide conjugated to cellulose membrane (amino-PEG500); cells 75 × 10^3 cells/mL, 37 °C, 4 h; CyQUANT fluorescence relative to peptide 1; spots in duplicate
From the text: (§1) Peptide array on the cellulose membrane was used to evaluate the binding of each peptide to different cell lines. The amino functionalized cellulose membrane provided by Intavis is acid hardened providing high stability at pH range from 1–14, permitting its use in acidic or basic conditions while maintaining membrane integrity. The PEG linker on membrane surface functions as a hydrophilic spacer between the peptide and the solid surface (membrane) reducing background signal. Cell lines were carefully selected for screening peptides as our goal here is to screen peptides with high binding/uptake by the TNBC cells. […] EGFR is overexpressed by a number of TNBC cells such as MDA-MB-468 (obtained from primary tumor source) and MDA-MB-231 (from metastasis cancer tissue)[13],[14]. While other TNBC cells like MDA-MB-436 (obtained from metastasis cancer tissue) are known to express low levels of EGFR. Non-tumorigenic epithelial MCF10A and MCF12A cells derived from the breast tissue also express low levels of EGFR[14],[34]. We selected two TNBC cell lines with relatively high expression of EGFR expression (MDA-MB-468/231) and a TNBC cell line with low level of EGFR expression (MDA-MB-436) for the peptide array screening experiments. In addition, non- tumorigenic cell line, MCF-10A was used for comparison. These four cell lines were allowed to bind the membrane by seeding the cells on the membrane and the bound cells were labeled with a fluorescent dye CyQUANT.
(§2) For the binding assay, the peptide array was incubated with the cells in sequential steps as described previously. Briefly peptide array membrane was dipped in ethanol for 30 s to remove any precipitation on it, followed by dipping in sterile PBS (pH 7.4) for another 30 min. The cells (75 × 10^3 cells/mL) were seeded directly on the membrane in a sterile plate and incubated at 37 °C for 4 h. The unbound cells were washed out with sterile PBS (pH 7.4). Thereafter the membrane was placed in a sealed bag and transferred to −80 °C freezer for 2 h. Subsequently it was defrosted at room temperature and treated with CyQUANT solution. The CyQUANT concentration was optimized based on the manufacturer’s protocol and preliminary experiments. Membrane was incubated at 37 °C for 30 min with the dye. After washing with sterile PBS and air drying using blow dryer, the membrane was scanned using Bio-rad chemidoc imager with image lab software. The settings were adjusted based on the excitation (465 nm) and emission (535 nm) wavelengths of CyQUANT dye. Epi Blue was selected for the light source (455–485 nm) and filter number 4 (blue filter, 518–546 nm) was employed. The fluorescence intensity of cancer cells read using chemidoc imager was normalized using the non-cancer cell fluorescence intensity. Eventually relative fluorescence was assessed to select peptides with high affinity to cancer cells and low or minimal binding to normal cells.

MDA-MB-231 [1] = assay: Peptide array-whole cell binding assay; type: cell-based; settings: peptide conjugated to cellulose membrane (amino-PEG500), no free C-terminus; cells 75 × 10^3 cells/mL, 37 °C, 4 h; CyQUANT fluorescence relative to peptide 1; spots in duplicate
From the text: as §1, §2

MDA-MB-436 [2] = assay: Peptide array-whole cell binding assay; type: cell-based; settings: peptide conjugated to cellulose membrane (amino-PEG500), no free C-terminus; cells 75 × 10^3 cells/mL, 37 °C, 4 h; CyQUANT fluorescence relative to peptide 1; spots in duplicate
From the text: as §1, §2

MDA-MB-468 [3] = assay: Peptide array-whole cell binding assay; type: cell-based; settings: peptide conjugated to cellulose membrane (amino-PEG500), no free C-terminus; cells 75 × 10^3 cells/mL, 37 °C, 4 h; CyQUANT fluorescence relative to peptide 1; spots in duplicate
From the text: as §1, §2

MDA-MB-231 [4] = assay: In vitro cellular uptake of FITC-labeled peptides by FACS; type: cell-based; settings: 30 min, 37 °C; for Mean Fluorescence Intensity ± SD MDA-MB-231: soluble FITC-β-alanine-labeled peptide 1 µM, FBS free media, 10^5 or 10^6 cells/well, MFI of FITC positive cells, three independent experiments ± SD
From the text: (§3) Flow cytometry was employed to determine the cellular uptake of selected six peptides (1, 4, 22, 23, 26, and 27). As opposed to the membrane bound (conjugated) peptide in library screening, the peptides used here were soluble (or free) FITC-labeled peptides. Peptides were labeled with FITC in the N-terminal and a β-alanine residue was used as a spacer between the FITC and the peptide sequence. The same three TNBC cells lines (MDA-MB-468, MDA-MB-231 and MDA-MB-436) used for peptide array screening were used here as well. Peptides 1 and 4 were used as controls. […] Peptide 4 was included in this experiment to compare the uptake of this keratin 1 binding peptide with the EGFR binding peptides. Peptides 22, 23, 26, and 27 were identified as the best EGFR binding peptides from the library screening.
(§4) Fluorescence-activated cell-sorting (FACS) analysis was used to check the uptake of the FITC-peptides. The stock solution for the FITC-peptides (100 μM) was prepared by dissolving the peptides in sterile water/10% DMSO. MDA-MB-231, MDA-MB-468 and MDA-MB-436 cells were seeded in 6-well plates with 10^6/10^5 cells/well containing 3 mL media and the plates were incubated at 37 °C overnight. The following day, the media was replaced with fresh FBS free media (1 mL) containing FITC-labeled peptide (1 µM), and further incubated at 37 °C for 30 min. Thereafter the media was removed and the cells were washed with cold PBS to remove any remaining peptide. Adequate trypsin was added to each well followed by 3–5 min incubation at 37 °C. Trypsin was immediately neutralized by adding media and the cell suspension was transferred into centrifuge tubes. The cells were separated and washed twice with FACS sheath fluid. The control cells were treated similarly but without peptide. Two wells were assigned for each peptide and each well sample was read twice in FACS machine. The experiment was repeated once. MFI represents the average of all wells for each peptide.

MDA-MB-436 [5] = assay: as above; type: cell-based; settings: soluble FITC-β-alanine-labeled peptide 1 µM, 30 min, 37 °C, FBS free media, 10^5 or 10^6 cells/well, MFI of FITC positive cells, three independent experiments ± SD
From the text: as §3, §4

MDA-MB-468 [6] = assay: as above; type: cell-based; settings: 30 min, 37 °C; for Mean Fluorescence Intensity ± SD MDA-MB-468: soluble FITC-β-alanine-labeled peptide 1 µM, FBS free media, 10^5 or 10^6 cells/well, MFI of FITC positive cells, three independent experiments ± SD
From the text: as §3, §4

EGFR on MDA-MB-231 cells = target: T1, EGFR on MDA-MB-231 cells (Homo sapiens, UniProt P00533); assay: Competitive uptake by FACS with excess EGF protein or unlabeled peptide 1; type: cell-based; settings: MDA-MB-231 cells (10^5), FITC-peptide 1 μM, 30 min
T1 construct: host or cells: MDA-MB-231
Method: The specific uptake of peptides 1 and 22 was evaluated using a competitive assay. First, MDA-MB-231 cells were incubated with peptide FITC-1 in the presence and absence of excess EGF protein (20-fold). […] The competition experiment was also repeated with peptide 22 in the presence and absence of EGF protein.
In addition, MDA-MB-231 cells (10^5) were incubated with varying concentration of peptide FITC-22 (0–6 μM). The resulting samples were treated as above, and the experiment was repeated. The fluorescence intensity of the FITC peptide-cell complex was plotted against peptide concentration. […] Control group was treated with media alone containing ~5% DMSO. Each group was done in duplicate and the experiment was repeated once.

[7] = Peptide stability in human serum; type: in vitro ADME; settings: preliminary results, data not shown
[8] = cited from earlier work
From the text: (§5) We found a region in EGF that may have structural similarity to peptide 22 (Fig. 4b). There is low sequence homology between the two sequences (peptide 22 and 12-residue region of EGF), however, based on the pr ...

breast cancer cells = settings: compared to linear peptide 18–4; cited from earlier work
From the text: as §5

[9] = target: T2, epidermal growth factor receptor (EGFR or ErbB1) (human (endogenous in MDA-MB-468, …, UniProt P00533 25-1210)); assay: flow cytometry on cells; competition: MDA-MB-231 cells (10^5); EGF (20 µM, 20-fold excess) or unlabeled peptide 1 (100 µM, 100-fold excess) added first, then FITC-labelled peptide 1 or 22 (1 µM), 30 min; settings: one partner purified
T2 construct: epidermal growth factor receptor, endogenous on human breast cell lines; expression levels are cited, not measured here; no isolated EGFR was used

[10] = soluble FITC-labeled peptide 1 µM

| Molecule | Relative Cell Adhesion MCF-10A (MCF-10A) | Relative Cell Adhesion MDA-MB-231 (MDA-MB-231 [1]) | Relative Cell Adhesion MDA-MB-436 (MDA-MB-436 [2]) | Relative Cell Adhesion MDA-MB-468 (MDA-MB-468 [3]) | Mean Fluorescence Intensity ± SD MDA-MB-231 (MDA-MB-231 [4]) | Mean Fluorescence Intensity ± SD MDA-MB-436 (MDA-MB-436 [5]) | Mean Fluorescence Intensity ± SD MDA-MB-468 (MDA-MB-468 [6]) | also measured |
| --- | --- | --- | --- | --- | --- | --- | --- | --- |
| CC[C@H](C)[C@H](NC(=O)[C@@H](NC(=O)[C@H](CC(N)=O)NC(=O)[C@H](CCC(=O)O)NC(=O)[C@@H]1CCCN1C(=O)[C@@H](NC(=O)[C@H](Cc1ccc(O)cc1)NC(=O)CNC(=O)[C@H](Cc1ccc(O)cc1)NC(=O)[C@H](Cc1c[nH]c2ccccc12)NC(=O)[C@H](Cc1c[nH]cn1)NC(=O)[C@@H](N)Cc1ccc(O)cc1)[C@@H](C)O)C(C)C)C(=O)O [Peptide 22] (H-YHWYGYTPENVI-OH) | 1.2 | 2.6 | 1.3 | 1.6 | 1978 ± 522 | 41 ± 27 | 8384 ± 735 | Uptake compared to peptide 1, MDA-MB-231 (MDA-MB-231 [4]; [10]): 47 fold; Uptake compared to peptide 1, MDA-MB-468 (MDA-MB-468 [6]; [10]): 123 fold; FITC positive cells, no competitor (EGFR on MDA-MB-231 cells; rounded value): 99%; Decrease in fluorescence / FITC positive cells in the presence of 20-fold excess EGF protein (EGFR on MDA-MB-231 cells; EGF 20 μM): 97%; FITC positive cells in the presence of 20-fold excess EGF protein (EGFR on MDA-MB-231 cells; EGF 20 μM, rounded value): 2%; Stability in the presence of human serum (in words) [7]: short half-life |
| FITC-AβYHWYGYTPQNVI [FITC-1, reference compound] | – | – | – | – | – | – | – | Decrease in fluorescence in the presence of 100-fold excess unlabeled peptide 1 (EGFR on MDA-MB-231 cells; unlabeled peptide 1 100 μM): 19.5% |
| Peptide 1: previously reported EGFR targeting dodecapeptide GE11 (YHWYGYTPQNVI), lead peptide [reference compound] | – | – | – | – | 42 ± 8 | 105 ± 11 | 68 ± 45 | Stability in the presence of human serum (in words) [7]: short half-life |
| Peptide 4: positive control peptide p160, VPWXEPAYQRFL, binds keratin 1 [reference compound] | 1.2 | 1.3 | 1.1 | 1.1 | 4791 ± 354 | 305 ± 58 | 23741 and 23741 ± 3068 | – |
| YHWYGYTPKNVI [Peptide 26] | 0.8 | 1.6 | 1.0 | 1.3 | 1877 ± 67 | 16 ± 18 | 6457 ± 557 | – |
| YHWYGYTPQDVI [Peptide 23] | 1.4 | 2.8 | 1.0 | 1.6 | 1631 ± 110 | 36 ± 14 | 4661 ± 883 | – |
| YHWYGYTPQKVI [Peptide 27] | 1.0 | 1.8 | 1.0 | 1.2 | 1683 ± 163 | 21 ± 17 | 5248 ± 407 | – |
| cyclic WXEAAYQkFL (head to tail) [N- to C terminal cyclized analogue of breast cancer targeting peptide 18–4, k is D-lysine] | – | – | – | – | – | – | – | Stability toward proteolytic degradation (in words) [8]: stable toward proteolytic degradation; Uptake by the breast cancer cells compared to the linear peptide (in words) (breast cancer cells): higher uptake |
| {FITC-βAla}-YHWYGYTPENVI-OH (GE11 analogue, Q9E; also called peptide FITC-22; FITC-22; source: synthetic peptide (Fmoc-SPPS, RP-HPLC purified)) [FITC-labeled soluble peptide 22] | – | – | – | – | – | – | – | percent FITC positive cells, with 20-fold excess EGF [9]: 2% |
